In patent publication US8133847B2, “Pyrido[2,3-B]pyrazine derivatives useful as herbicidal compounds” (Syngenta Limited, priority 2006, dated 2012):

Experiments:
Assay in all cases: Example B1 herbicidal action, post-emergence, 96-cell seed trays, climatic chamber
Format in all cases: in vivo
[1] = tested on: Nasturtium officinale (NAAOF); parameters: scale not given here; settings: Application post-emergence, 1000 mg/l spray equivalent to 1000 g/ha, evaluated after 9 days (100=total damage to plant, 0=no damage to plant)
Experimental: (§1) Seeds of a variety of test species were sown in sterilised standard soil in seed trays each having 96 cells. After cultivation for 8 to 9 days cultivation (post-emergence) under controlled conditions in a climatic chamber (cultivation at 23/17° C., day/night; 13 hours light; 50-60% humidity), the plants were treated with an aqueous spray solution of 1000 mg/l of the active ingredient dissolved in 10% DMSO (dimethyl sulfoxide, CAS RN 67-68-5) as a solvent, equivalent to 1000 g/ha. The plants were grown in the climatic chamber after application at (24/19° C., day/night; 13 hours light; 50-60% humidity) and watered twice daily. After 9 days until the test was evaluated (100=total damage to plant, 0=no damage to plant)

Stellaria media (STEME) = settings: Application post-emergence, 1000 mg/l spray equivalent to 1000 g/ha, evaluated after 9 days (100=total damage to plant, 0=no damage to plant)
Experimental: as §1

[2] = tested on: Amaranthus retroflexus (AMARE); settings: Application post-emergence, 1000 mg/l spray equivalent to 1000 g/ha, evaluated after 9 days
Experimental: as §1

Solanum nigrum (SOLNI) = settings: Application post-emergence, 1000 mg/l spray equivalent to 1000 g/ha, evaluated after 9 days (100=total damage to plant, 0=no damage to plant)
Experimental: as §1

SMILES	damage to plant, Nasturtium officinale (NAAOF) [1]	damage to plant, Stellaria media (STEME) (Stellaria media (STEME))	damage to plant, Amaranthus retroflexus (AMARE) [2]	damage to plant, Solanum nigrum (SOLNI) (Solanum nigrum (SOLNI))
Cc1ccc(Cl)c(-c2c(OC(=O)C(C)(C)C)c3nccnc3[nH]c2=O)c1F [Compound B37]	0	5	0	0
CC(C)C(=O)Oc1c(-c2cc(C(F)(F)F)ccc2Cl)c(=O)[nH]c2nccnc12 [Compound B38]	4	0	4	0
O=C(Oc1c(-c2c(F)ccc(F)c2Cl)c(=O)[nH]c2nccnc12)c1ccc([N+](=O)[O-])cc1 [Compound B40]	0	1	6	0
CC(C)(C)C(=O)Oc1c(-c2c(Cl)cc(C(F)(F)F)cc2Cl)c(=O)[nH]c2nccnc12 [Compound B41]	2	1	2	2
CCn1c(=O)c(-c2ccc(F)cc2Cl)c(OC(=O)C(C)C)c2nccnc21 [Compound C3]	7	6	0	5
CC(C)C(=O)Oc1c(-c2ccc(F)cc2Cl)c(=O)n(C)c2nccnc12 [Compound C5]	7	8	7	2
CCn1c(=O)c(-c2ccc(Cl)cc2Cl)c(OC(C)=O)c2nccnc21 [Compound C6]	8	9	8	5
COCCn1c(=O)c(-c2ccc(Cl)cc2Cl)c(OC(C)=O)c2nccnc21 [Compound C9]	2	2	0	3
CCn1c(=O)c(-c2c(F)ccc(F)c2Cl)c(OC(=O)C(C)C)c2nccnc21 [Compound C11]	8	8	9	5
CCn1c(=O)c(-c2c(F)ccc(F)c2Cl)c(OC(C)=O)c2nccnc21 [Compound C13]	8	8	8	2
C=CCn1c(=O)c(-c2c(F)ccc(F)c2Cl)c(OC(C)=O)c2nccnc21 [Compound C14]	8	8	7	4
COCCn1c(=O)c(-c2c(F)ccc(F)c2Cl)c(OC(=O)C(C)C)c2nccnc21 [Compound C15]	6	5	0	1
CC(C)n1c(=O)c(-c2c(F)ccc(F)c2Cl)c(OC(=O)C(C)(C)C)c2nccnc21 [Compound C19]	4	6	0	3
CCn1c(=O)c(-c2c(F)ccc(F)c2Cl)c(OC(=O)C(C)(C)C)c2nccnc21 [Compound C21]	8	8	8	0
C=CCCn1c(=O)c(-c2ccccc2OC(F)(F)F)c(OC(C)=O)c2nccnc21 [Compound C22]	8	5	1	2
CC(C)n1c(=O)c(-c2ccccc2OC(F)(F)F)c(OC(=O)C(C)(C)C)c2nccnc21 [Compound C23]	0	0	0	4
CC(=O)Oc1c(-c2ccccc2OC(F)(F)F)c(=O)n(Cc2ccccc2)c2nccnc12 [Compound C24]	4	3	0	3
C=CCn1c(=O)c(-c2ccccc2OC(F)(F)F)c(OC(=O)C(C)(C)C)c2nccnc21 [Compound C25]	0	2	0	0

SMILES	damage to plant, Nasturtium officinale (NAAOF) [1]	damage to plant, Stellaria media (STEME) (Stellaria media (STEME))	damage to plant, Amaranthus retroflexus (AMARE) [2]	damage to plant, Solanum nigrum (SOLNI) (Solanum nigrum (SOLNI))
CCn1c(=O)c(-c2ccccc2OC(F)(F)F)c(OC(=O)C(C)(C)C)c2nccnc21 [Compound C26]	0	2	0	0
CCn1c(=O)c(-c2ccccc2OC(F)(F)F)c(OC(C)=O)c2nccnc21 [Compound C27]	7	5	7	6
CCC(=O)Oc1c(-c2ccccc2OC(F)(F)F)c(=O)n(C)c2nccnc12 [Compound C28]	7	7	2	2
Cn1c(=O)c(-c2ccccc2OC(F)(F)F)c(OC(=O)C(C)(C)C)c2nccnc21 [Compound C29]	2	0	0	4
C=CCn1c(=O)c(-c2c(Cl)cccc2Cl)c(OC(=O)CC)c2nccnc21 [Compound C30]	8	8	8	4
CCC(=O)Oc1c(-c2c(Cl)cccc2Cl)c(=O)n(CC)c2nccnc12 [Compound C31]	8	8	8	4
CCC(=O)Oc1c(-c2c(Cl)cccc2Cl)c(=O)n(C)c2nccnc12 [Compound C32]	8	8	8	2
CC(=O)Oc1c(-c2c(Cl)cccc2Cl)c(=O)n(C)c2nccnc12 [Compound C33]	7	6	3	6
CCC(=O)Oc1c(-c2c(Cl)cccc2Cl)c(=O)n(CCOC)c2nccnc12 [Compound C34]	5	6	2	0
C/C=C/C(=O)Oc1c(-c2c(Cl)cccc2Cl)c(=O)n(C)c2nccnc12 [Compound C35]	7	7	2	0
CCOC(=O)Oc1c(-c2c(Cl)cccc2Cl)c(=O)n(C)c2nccnc12 [Compound C36]	7	5	5	6
Cn1c(=O)c(-c2c(Cl)cccc2Cl)c(OC(=O)C(C)(C)C)c2nccnc21 [Compound C37]	7	5	5	6
CCCC(=O)Oc1c(-c2c(Cl)cccc2Cl)c(=O)n(C)c2nccnc12 [Compound C38]	7	7	5	7
C=CCn1c(=O)c(-c2c(Cl)cccc2Cl)c(OC(=O)OCC)c2nccnc21 [Compound C39]	6	6	7	7
CCCCn1c(=O)c(-c2c(Cl)cccc2Cl)c(OC(C)=O)c2nccnc21 [Compound C40]	2	2	3	2
CCn1c(=O)c(-c2c(Cl)cccc2Cl)c(OC(=O)C(C)(C)C)c2nccnc21 [Compound C41]	2	2	2	0
CC(=O)Oc1c(-c2ccc(Cl)cc2Cl)c(=O)n(C)c2nccnc12 [Compound C43]	5	5	3	3
